Measurements reported in the supplement of paper PMC13207355.

Assays:
Conditions in all cases: exposure time: 72 h
E13 [1] = patient-derived glioblastoma stem cells of classical subtype; assay: surviving fraction (nuclei count normalised to DMSO); higher = more cells surviving (less toxic)
E21 [2] = patient-derived glioblastoma stem cells of mesenchymal subtype; assay: as above
E28 [3] = patient-derived glioblastoma stem cells of classical subtype; assay: as above
E31 [4] = patient-derived glioblastoma stem cells of proneural subtype; assay: as above
E34 [5] = patient-derived glioblastoma stem cells of proneural subtype; assay: as above
E57 [6] = patient-derived glioblastoma stem cells of mesenchymal subtype; assay: as above
FT3469 [7] = normal neural stem cell line; assay: as above
E13 [8] = assay: phenotypic distance (Euclidean, principal components) from DMSO controls (arbitrary units); higher = stronger morphological change
E21 [9] = assay: as above
E28 [10] = assay: as above
E31 [11] = assay: as above
E34 [12] = assay: as above
E57 [13] = assay: as above
FT3469 [14] = assay: as above
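Wherever phenotypic distance (Euclidean, principal components) from DMSO controls is given: cell Painting imaging in 384-well plates, CellProfiler features reduced to at least 20 principal components, Euclidean distance versus same-plate DMSO vehicle wells (0.1% v/v), median over six images per well.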
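Wherever surviving fraction (nuclei count normalised to DMSO) is given: nuclei counted by high-content imaging of Hoechst-stained cells in laminin-coated 384-well plates, relative to 0.1% DMSO vehicle wells, with staurosporine as cell-death control.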

Structure (SMILES): COc1nc(C)nc(Cl)c1NC1=NCCN1 [Moxonidine]
- surviving fraction (E13 [1]; 4.1 nM): 0.843
- surviving fraction (E13 [1]; 12.3 nM): 1.02
- surviving fraction (E13 [1]; 37 nM): 0.886
- surviving fraction (E13 [1]; 111.1 nM): 0.915
- surviving fraction (E13 [1]; 333.3 nM): 0.908
- surviving fraction (E13 [1]; 1000 nM): 0.948
- surviving fraction (E13 [1]; 3000 nM): 0.923
- surviving fraction (E21 [2]; 4.1 nM): 1.03
- surviving fraction (E21 [2]; 12.3 nM): 0.94
- surviving fraction (E21 [2]; 37 nM): 0.924
- surviving fraction (E21 [2]; 111.1 nM): 1.12
- surviving fraction (E21 [2]; 333.3 nM): 1.1
- surviving fraction (E21 [2]; 1000 nM): 1.06
- surviving fraction (E21 [2]; 3000 nM): 0.991
- surviving fraction (E28 [3]; 4.1 nM): 0.996
- surviving fraction (E28 [3]; 12.3 nM): 1.06
- surviving fraction (E28 [3]; 37 nM): 0.904
- surviving fraction (E28 [3]; 111.1 nM): 1.13
- surviving fraction (E28 [3]; 333.3 nM): 0.848
- surviving fraction (E28 [3]; 1000 nM): 1.05
- surviving fraction (E28 [3]; 3000 nM): 0.825
- surviving fraction (E31 [4]; 4.1 nM): 1
- surviving fraction (E31 [4]; 12.3 nM): 1.18
- surviving fraction (E31 [4]; 37 nM): 0.879
- surviving fraction (E31 [4]; 111.1 nM): 1.15
- surviving fraction (E31 [4]; 333.3 nM): 0.956
- surviving fraction (E31 [4]; 1000 nM): 1.21
- surviving fraction (E31 [4]; 3000 nM): 1.06
- surviving fraction (E34 [5]; 4.1 nM): 0.953
- surviving fraction (E34 [5]; 12.3 nM): 0.957
- surviving fraction (E34 [5]; 37 nM): 0.962
- surviving fraction (E34 [5]; 111.1 nM): 1.07
- surviving fraction (E34 [5]; 333.3 nM): 1.26
- surviving fraction (E34 [5]; 1000 nM): 0.981
- surviving fraction (E34 [5]; 3000 nM): 0.699
- surviving fraction (E57 [6]; 4.1 nM): 1.06
- surviving fraction (E57 [6]; 12.3 nM): 0.999
- surviving fraction (E57 [6]; 37 nM): 1.06
- surviving fraction (E57 [6]; 111.1 nM): 1.03
- surviving fraction (E57 [6]; 333.3 nM): 0.978
- surviving fraction (E57 [6]; 1000 nM): 0.975
- surviving fraction (E57 [6]; 3000 nM): 1.04
- surviving fraction (FT3469 [7]; 4.1 nM): 1.03
- surviving fraction (FT3469 [7]; 12.3 nM): 1.1
- surviving fraction (FT3469 [7]; 37 nM): 1.25
- surviving fraction (FT3469 [7]; 111.1 nM): 1.04
- surviving fraction (FT3469 [7]; 333.3 nM): 1.26
- surviving fraction (FT3469 [7]; 1000 nM): 1.18
- surviving fraction (FT3469 [7]; 3000 nM): 1.38
- phenotypic distance (E13 [8]; 4.1 nM): 0.65
- phenotypic distance (E13 [8]; 12.3 nM): 0.585
- phenotypic distance (E13 [8]; 37 nM): 0.647
- phenotypic distance (E13 [8]; 111.1 nM): 0.433
- phenotypic distance (E13 [8]; 333.3 nM): 0.523
- phenotypic distance (E13 [8]; 1000 nM): 0.446
- phenotypic distance (E13 [8]; 3000 nM): 0.37
- phenotypic distance (E21 [9]; 4.1 nM): 0.506
- phenotypic distance (E21 [9]; 12.3 nM): 0.442
- phenotypic distance (E21 [9]; 37 nM): 0.528
- phenotypic distance (E21 [9]; 111.1 nM): 1.03
- phenotypic distance (E21 [9]; 333.3 nM): 0.334
- phenotypic distance (E21 [9]; 1000 nM): 0.69
- phenotypic distance (E21 [9]; 3000 nM): 0.274
- phenotypic distance (E28 [10]; 4.1 nM): 0.486
- phenotypic distance (E28 [10]; 12.3 nM): 0.819
- phenotypic distance (E28 [10]; 37 nM): 0.764
- phenotypic distance (E28 [10]; 111.1 nM): 0.711
- phenotypic distance (E28 [10]; 333.3 nM): 0.733
- phenotypic distance (E28 [10]; 1000 nM): 0.573
- phenotypic distance (E28 [10]; 3000 nM): 0.781
- phenotypic distance (E31 [11]; 4.1 nM): 0.413
- phenotypic distance (E31 [11]; 12.3 nM): 0.823
- phenotypic distance (E31 [11]; 37 nM): 0.773
- phenotypic distance (E31 [11]; 111.1 nM): 0.902
- phenotypic distance (E31 [11]; 333.3 nM): 0.598
- phenotypic distance (E31 [11]; 1000 nM): 0.599
- phenotypic distance (E31 [11]; 3000 nM): 0.717
- phenotypic distance (E34 [12]; 4.1 nM): 0.347
- phenotypic distance (E34 [12]; 12.3 nM): 0.861
- phenotypic distance (E34 [12]; 37 nM): 0.936
- phenotypic distance (E34 [12]; 111.1 nM): 0.523
- phenotypic distance (E34 [12]; 333.3 nM): 0.639
- phenotypic distance (E34 [12]; 1000 nM): 0.533
- phenotypic distance (E34 [12]; 3000 nM): 1.09
- phenotypic distance (E57 [13]; 4.1 nM): 0.464
- phenotypic distance (E57 [13]; 12.3 nM): 0.657
- phenotypic distance (E57 [13]; 37 nM): 0.543
- phenotypic distance (E57 [13]; 111.1 nM): 0.801
- phenotypic distance (E57 [13]; 333.3 nM): 0.46
- phenotypic distance (E57 [13]; 1000 nM): 0.757
- phenotypic distance (E57 [13]; 3000 nM): 0.505
- phenotypic distance (FT3469 [14]; 4.1 nM): 0.479
- phenotypic distance (FT3469 [14]; 12.3 nM): 0.821
- phenotypic distance (FT3469 [14]; 37 nM): 0.541
- phenotypic distance (FT3469 [14]; 111.1 nM): 0.878
- phenotypic distance (FT3469 [14]; 333.3 nM): 0.406
- phenotypic distance (FT3469 [14]; 1000 nM): 0.742
- phenotypic distance (FT3469 [14]; 3000 nM): 0.873

Structure (SMILES): Clc1ccc(COC(Cn2ccnc2)c2ccc(Cl)cc2Cl)cc1 (stereo unspecified) [Econazole nitrate]
- surviving fraction (E13 [1]; 4.1 nM): 0.964
- surviving fraction (E13 [1]; 12.3 nM): 1.05
- surviving fraction (E13 [1]; 37 nM): 0.999
- surviving fraction (E13 [1]; 111.1 nM): 1.11
- surviving fraction (E13 [1]; 333.3 nM): 1.08
- surviving fraction (E13 [1]; 1000 nM): 0.997
- surviving fraction (E13 [1]; 3000 nM): 0.967
- surviving fraction (E21 [2]; 4.1 nM): 1.11
- surviving fraction (E21 [2]; 12.3 nM): 0.967
- surviving fraction (E21 [2]; 37 nM): 0.99
- surviving fraction (E21 [2]; 111.1 nM): 1.03
- surviving fraction (E21 [2]; 333.3 nM): 1.01
- surviving fraction (E21 [2]; 1000 nM): 1.11
- surviving fraction (E21 [2]; 3000 nM): 1.18
- surviving fraction (E28 [3]; 4.1 nM): 1.06
- surviving fraction (E28 [3]; 12.3 nM): 1.03
- surviving fraction (E28 [3]; 37 nM): 1.06
- surviving fraction (E28 [3]; 111.1 nM): 0.943
- surviving fraction (E28 [3]; 333.3 nM): 1.12
- surviving fraction (E28 [3]; 1000 nM): 0.941
- surviving fraction (E28 [3]; 3000 nM): 0.965
- surviving fraction (E31 [4]; 4.1 nM): 1.03
- surviving fraction (E31 [4]; 12.3 nM): 0.985
- surviving fraction (E31 [4]; 37 nM): 0.969
- surviving fraction (E31 [4]; 111.1 nM): 0.924
- surviving fraction (E31 [4]; 333.3 nM): 1.08
- surviving fraction (E31 [4]; 1000 nM): 1.17
- surviving fraction (E31 [4]; 3000 nM): 1.14
- surviving fraction (E34 [5]; 4.1 nM): 0.983
- surviving fraction (E34 [5]; 12.3 nM): 1.08
- surviving fraction (E34 [5]; 37 nM): 1.01
- surviving fraction (E34 [5]; 111.1 nM): 1.17
- surviving fraction (E34 [5]; 333.3 nM): 1.03
- surviving fraction (E34 [5]; 1000 nM): 1.11
- surviving fraction (E34 [5]; 3000 nM): 0.957
- surviving fraction (E57 [6]; 4.1 nM): 1.02
- surviving fraction (E57 [6]; 12.3 nM): 1.04
- surviving fraction (E57 [6]; 37 nM): 1.07
- surviving fraction (E57 [6]; 111.1 nM): 1.06
- surviving fraction (E57 [6]; 333.3 nM): 1.09
- surviving fraction (E57 [6]; 1000 nM): 1.03
- surviving fraction (E57 [6]; 3000 nM): 1.05
- surviving fraction (FT3469 [7]; 4.1 nM): 0.824
- surviving fraction (FT3469 [7]; 12.3 nM): 0.949
- surviving fraction (FT3469 [7]; 37 nM): 1.04
- surviving fraction (FT3469 [7]; 111.1 nM): 1.03
- surviving fraction (FT3469 [7]; 333.3 nM): 0.854
- surviving fraction (FT3469 [7]; 1000 nM): 0.902
- surviving fraction (FT3469 [7]; 3000 nM): 0.864
- phenotypic distance (E13 [8]; 4.1 nM): 0.86
- phenotypic distance (E13 [8]; 12.3 nM): 0.584
- phenotypic distance (E13 [8]; 37 nM): 0.567
- phenotypic distance (E13 [8]; 111.1 nM): 1.07
- phenotypic distance (E13 [8]; 333.3 nM): 1.37
- phenotypic distance (E13 [8]; 1000 nM): 0.962
- phenotypic distance (E13 [8]; 3000 nM): 1.16
- phenotypic distance (E21 [9]; 4.1 nM): 0.651
- phenotypic distance (E21 [9]; 12.3 nM): 0.516
- phenotypic distance (E21 [9]; 37 nM): 0.785
- phenotypic distance (E21 [9]; 111.1 nM): 0.844
- phenotypic distance (E21 [9]; 333.3 nM): 0.917
- phenotypic distance (E21 [9]; 1000 nM): 0.797
- phenotypic distance (E21 [9]; 3000 nM): 1.31
- phenotypic distance (E28 [10]; 4.1 nM): 0.359
- phenotypic distance (E28 [10]; 12.3 nM): 0.539
- phenotypic distance (E28 [10]; 37 nM): 0.504
- phenotypic distance (E28 [10]; 111.1 nM): 0.446
- phenotypic distance (E28 [10]; 333.3 nM): 0.803
- phenotypic distance (E28 [10]; 1000 nM): 0.72
- phenotypic distance (E28 [10]; 3000 nM): 0.946
- phenotypic distance (E31 [11]; 4.1 nM): 0.819
- phenotypic distance (E31 [11]; 12.3 nM): 0.415
- phenotypic distance (E31 [11]; 37 nM): 0.765
- phenotypic distance (E31 [11]; 111.1 nM): 0.767
- phenotypic distance (E31 [11]; 333.3 nM): 0.871
- phenotypic distance (E31 [11]; 1000 nM): 1.4
- phenotypic distance (E31 [11]; 3000 nM): 1.39
- phenotypic distance (E34 [12]; 4.1 nM): 0.901
- phenotypic distance (E34 [12]; 12.3 nM): 0.505
- phenotypic distance (E34 [12]; 37 nM): 0.479
- phenotypic distance (E34 [12]; 111.1 nM): 1.39
- phenotypic distance (E34 [12]; 333.3 nM): 0.912
- phenotypic distance (E34 [12]; 1000 nM): 1.29
- phenotypic distance (E34 [12]; 3000 nM): 1.17
- phenotypic distance (E57 [13]; 4.1 nM): 0.324
- phenotypic distance (E57 [13]; 12.3 nM): 0.67
- phenotypic distance (E57 [13]; 37 nM): 0.501
- phenotypic distance (E57 [13]; 111.1 nM): 0.756
- phenotypic distance (E57 [13]; 333.3 nM): 0.858
- phenotypic distance (E57 [13]; 1000 nM): 1.1
- phenotypic distance (E57 [13]; 3000 nM): 1.45
- phenotypic distance (FT3469 [14]; 4.1 nM): 0.434
- phenotypic distance (FT3469 [14]; 12.3 nM): 0.211
- phenotypic distance (FT3469 [14]; 37 nM): 0.645
- phenotypic distance (FT3469 [14]; 111.1 nM): 0.741
- phenotypic distance (FT3469 [14]; 333.3 nM): 0.628
- phenotypic distance (FT3469 [14]; 1000 nM): 0.747
- phenotypic distance (FT3469 [14]; 3000 nM): 0.632
